The results in this text go back to a melting point compilation (Tetko et al.; mined from patent text by program, amines drawn as free bases though some values may be those of a salt).

Structures are written as SMILES.

As to `Nc1nc2ccccc2c2c1nc(CCCOc1ccccc1)n2CCCCNC(=O)N1CCOCC1`, the melting point is 71.5 to 72.1 °C.
Under `Cc1ncnc(-c2ccc(Oc3ccc([N+](=O)[O-])cc3)cc2)n1` stands 148 to 149 °C.
As for `O=C(O)C1COC(C(F)(F)F)(C(F)(F)F)O1` (configuration not stated), the figure is 62 to 63 °C; as for `CSc1ccc(CN2CC(C)(C)C(Oc3ccc(C#N)c(C(F)(F)F)c3)C2=O)cc1` (configuration not stated), 44.1 to 44.8 °C.
As for `CCOC(=O)/C(=N\OC1(C)CCCCC1)c1csc(N)n1`, the figure is 126 °C.
`COC(=O)CCCc1cc2nc(Cl)ccc2n1S(=O)(=O)c1cccc(OC)c1`: the melting point was 90 °C.
As for `O=C(O)CCC1CCN(C(=O)CN2CCN(c3ccncc3)CC2)CC1`, the melting point was 90 to 92 °C.
As for `O=[N+]([O-])c1ccc(O)c(C(=NO)c2ccccc2)c1`, the figure is 193 to 196 °C; as for `Cc1noc(NS(=O)(=O)c2ccccc2-c2ccc(-c3ncco3)cc2COc2ccc(-c3ccccc3)cc2)c1C`, 95 to 105 °C; as for `CS(=O)(=O)Nc1ccc(CNC(=O)c2cccnc2Oc2ccc(F)cc2)cc1`, 107 to 109 °C.
Under `CC(C)n1nc(-c2sc(NCCN3CCCCC3)nc2-c2ccccc2)ccc1=O` stands 165 to 166 °C; under `NS(=O)(=O)c1ccc(-n2nc(C(F)F)cc2-c2nc3ccc(F)cc3s2)cc1`, 255 °C.
As for `CC(C)(C)OC(=O)N1CCC(C(c2cc(F)ccc2F)S(=O)(=O)c2ccc(Cl)cc2)CC1` (configuration not stated), the figure is 193 to 196 °C; as for `CC1=C(O)C(=O)C(C)(C(O)Cc2ccccc2)O1` (configuration not stated), 158 to 159 °C.
On to `COCc1cc(C(O)CN(Cc2ccccc2)Cc2ccccc2)ccc1OCc1ccccc1` (configuration not stated), for which the melting point was 52 to 57 °C.
Under `O=C(CBr)OCN1C(=O)NC(c2ccccc2)(c2ccccc2)C1=O` stands 179 to 183 °C; under `COCCCSc1c2c(=O)n(C)c(=O)n(CC(C)C)c2cn1Cc1cccc2ccccc12`, 92 to 94 °C; under `Cn1cnnc1SCCCCCN1CCN(c2cccc(C(F)(F)F)c2)CC1`, 70 to 76 °C.
Take `CCn1ncc(C(=O)c2ccc(S(C)(=O)=O)c(C3=NOCC3)c2Cl)c1OCc1ccccc1`: the melting point was 70 to 75 °C.
Regarding `O=C(c1ccc([N+](=O)[O-])cc1Cl)N1CCCCc2ncccc21`, the melting point was in the range of 143 to 145 °C.
As for `Cn1c(=O)c2cn(S(=O)(=O)CCCCl)nc2n(C)c1=O`, the melting point was 160 to 162 °C.
As for `COC(=O)C(C)=CC(C)=Cc1cc([N+](=O)[O-])ccc1Cl`, the figure is 88 to 90 °C.
Under `O=C(CNC(=O)c1ccc([N+](=O)[O-])c(F)c1)OCC(Cl)(Cl)Cl` stands 142 to 144 °C; under `CCN(CC)C(=O)c1cc2ccc(Cl)cc2c(-c2ccccc2Cl)n1`, 145 °C; under `C#CC12CCCN(CC1)C2` (configuration not stated), 41 to 42 °C.
As for `O=[N+]([O-])c1ccc(O)c(C=NCCC(F)=C(F)F)c1`, the figure is 96 to 98 °C; as for `CN1CCN(c2nc3c(cc2F)c(=O)n(OCc2ccccc2)c(=O)n3C2CC2)CC1`, 188 to 189 °C; as for `COC(=O)c1ccc(NC(=O)[C@H](Cc2ccccc2)NC(=O)OC(C)(C)C)cc1`, 173 to 175 °C.
`CCC(C)N1CCc2cnc3ccnn3c21` (configuration not stated) displayed a melting point of 199 °C.
Under `CC(C)S(=O)(=O)n1c(N)nc2ccc(C(=CBr)c3ccccc3)cc21` stands 180 to 182 °C.
Consider `CC12CCC3C(CCC4=CC(=CF)CCC43CS)C1CCC2=O` (configuration not stated), for which the melting point was in the range of 118 to 120 °C.
Under `CCCc1c([C@@H]2C[C@H]2c2ccccc2)oc2ccc(C(=O)O)cc2c1=O` (relative stereo) stands 195 to 196 °C; under `CCCNC(=O)NCC1CCCCC1`, 60 to 61 °C; under `FC(F)(F)c1ccc(Oc2ccc(OCc3ccccc3)cc2)c(Cl)c1`, 63 to 66 °C.
Under `CC1=C(C)C(=O)N(c2ccc(C)c(NS(=O)(=O)C(F)(F)F)c2)C1=O` stands 152 to 154 °C; under `O=C(CCCCC1CCSS1)N1CCN(c2ccc([N+](=O)[O-])cc2)CC1` (configuration not stated), 97.6 to 98.5 °C.
Under `CCOC(=O)c1c(S(=O)(=O)Cc2nccn2C)nc2cc(OC)c(OC)cc2c1-c1ccc(OC)c(OC)c1` stands 132 to 133 °C; under `CN1C(C)(C)CC(NC(=O)c2ccc(-c3nc4ccc(Cl)cc4[nH]3)cc2)CC1(C)C`, greater than 250 °C.
`CSc1nc(N)c2ncn(COCCO)c2n1` came in with a melting point of 174 to 176 °C.
As for `NCCc1c[nH]c(=O)[nH]c1=O`, the figure is 214 to 220 °C.
In the case of `COC(=O)C1(NC(=O)Cc2cc(-c3ccc(Cl)cc3)ccc2Cl)CCCCC1`, the melting point amounted to 124 °C.
As for `Cc1sc(-c2ccccc2)nc1CCOc1cc(COc2ccccc2CC(=O)O)on1`, the figure is 159 to 160 °C; as for `O=S(CCN1C=CC=CC=C1)c1ccccc1` (configuration not stated), 195 °C.
Under `CCc1nn(C2CCCC2)c2cc(-c3cccs3)ccc12` stands 60 to 64 °C; under `COc1cc2c(c(OC)c1)C1CCC3(C)C(=O)CCC3C1CC2` (configuration not stated), 132 to 133 °C; under `COC(=O)CC[C@@H](Cc1ccc(OCc2ccccc2)cc1)NC(=O)CCCCCCc1ccccc1`, 94.8 to 95.9 °C.
Under `Cc1oc(-c2ccco2)nc1CCc1ccc(CCCCC2OC(=O)NC2=O)cc1` (configuration not stated) stands 140 to 141 °C; under `COC(=O)C(c1ccccc1)C1CCN(c2ccc(N)cc2)CC1` (configuration not stated), 125 °C; under `CC(C)Oc1ccc(CCC(=O)NS(=O)(=O)c2ccccc2)c(Oc2ncc(C(F)(F)F)cc2Cl)c1`, 129 to 130 °C.
In turn, `O=S1(=O)c2cc(C=C(c3ccccc3)c3ccccc3)ccc2N(c2ccccc2)c2ccc(C=C(c3ccccc3)c3ccccc3)cc21` displayed a melting point of 269 to 274 °C.
Under `Cc1ccc(C(F)(F)F)c2sc(Sc3ccc4c(c3)CCC3N(C)C(=O)CCC43C)nc12` (single isomer, unassigned; (+)) stands 50 to 54 °C; under `O=C(NN=Cc1ccncc1)OCc1ccccc1`, 134 °C.
Under `O=C(NCCOc1ccc(CC(Oc2ccc(C(F)(F)F)cc2)C(=O)O)cc1)c1ccc(-c2ccccn2)cc1` (configuration not stated) stands 154 to 155 °C; under `O=C(Nc1ccc2ccc(Oc3ccccc3)nc2n1)c1ccco1`, 167 °C.
As for `CC(C)(C)OC(=O)c1ccc(C=NO)cc1`, the figure is 113 to 114 °C; as for `COCC1OC(n2cnc3c(Cl)nc(Cl)nc32)C(OC(C)=O)C1OC(C)=O` (configuration not stated), 59 to 61 °C; as for `CCOC(=O)c1ccc(COCc2csc3nc(C(=O)NCc4cccc(CS(C)=O)c4)[nH]c(=O)c23)cc1` (configuration not stated), 195 to 196 °C.
Regarding `Cc1cccc(-c2nc(-c3ccc(S(C)(=O)=O)cc3)sc2-c2ccnc(Sc3ccccc3)c2)c1`, the melting point fell in the range of 116 to 118 °C.
As for `CCCCCCCCCCCCCCCCSCC(CNS(=O)(=O)CCCI)NC(=O)OC` (configuration not stated), the figure is 79 to 81 °C.
As for `Cc1nc(-c2ccc(OC(C)C)c(C#N)c2)sc1C(=O)O`, the figure is 220 to 222 °C; as for `CCOC(=O)C1=C(C)NN=C(C(=O)OC)C1c1ccccc1C#N` (configuration not stated), 199 °C.
As for `CS(=O)(=O)c1ccc(C(CC2CCOCC2)c2ccc(-c3nnc(CO)s3)[nH]2)cc1` (configuration not stated), the figure is 199 to 201 °C.
Take `CO[C@@H]1CNCC[C@H]1NC(=O)c1cccc(C(F)(F)F)c1` (relative stereo): the melting point is 100 °C.
In turn, `CCCCCCCCCCCCCCC(CCCCCC(=O)O)CCCCCC(=O)O` had a melting point of 48 to 50 °C.
As for `CC(CSc1cc(C(C)(C)C)c(O)c(C(C)(C)C)c1)C(=O)N1CCCC1` (configuration not stated), the figure is 125 to 126 °C; as for `Cc1oc(-c2cccs2)nc1COc1ccc(CON=C(CCCCC(=O)O)c2ccccc2)cc1`, 101 to 102 °C; as for `O=C(NCCF)c1ccc(CCN2CC=C(c3c[nH]c(-c4ccc(F)cc4)c3-c3ccncc3)CC2)cc1`, 209 to 211 °C.
As for `C[C@H]1c2cc(F)ccc2-c2ccccc2N1S(=O)(=O)c1ccc(OS(N)(=O)=O)cc1`, the figure is 166 to 167 °C; as for `O=C1COc2ccc3ccccc3c21`, 194 to 196 °C.
As for `CCCCc1nc(SC)c(C(=O)OCC)n1Cc1cccc(-c2ccccc2S(=O)(=O)NC#N)c1`, the melting point is 118 °C.
Under `O=S1(=O)CCN2CCN[C@H](c3ccc(Oc4ccccc4)cc3)C2=N1` stands 124 to 125 °C; under `Nc1ncccc1OCc1cccc(Cl)c1F`, 98 to 100 °C.
As for `CN(CCOc1ccc(CC(F)C(=O)O)cc1)c1nc2ccccc2o1` (configuration not stated), the figure is 146 to 148 °C.
As for `COC(=O)c1ccc(=O)n(CCNC(=O)c2cnccn2)c1`, the figure is 195 to 197 °C.
`CCS(=O)(=O)Nc1cc(C2(NC)NC=NC=C2Cl)c(F)cc1C#N` (configuration not stated): the melting point lay within 211 to 212 °C.
`CC1(C)CCC(C(=O)N2CCC[C@H]2C(=O)O)C1S` (some centres not stated) yielded a melting point of 153 °C.
Under `CC1(C)CCC(C)(C)c2cc3c(cc21)CCc1c(-c2ccc(C(=O)O)cc2)ccnc1-3` stands 286 to 289 °C; under `NC(CC(=O)O)c1ccc2c(c1)OCO2` (configuration not stated), 223 to 224 °C.
Under `CCOC(=O)c1cn(-c2nonc2C)c2c(F)c(F)c(F)cc2c1=O` stands 201 to 202 °C; under `O=C(CC1CCN(Cc2ccccc2)CC1)c1ccc(O)cc1`, 197 to 198 °C; under `O=C(NCCO)/C(=C/c1ccc(OC(F)F)cc1)NC(=O)c1ccc(OCCC2CC2)cc1`, 153 to 155 °C.
On to `c1nc(Cc2ccc3c(c2)COCO3)c[nH]1`, for which the melting point amounted to 145 °C.
`O=C(CCCCCBr)c1cc2c3c(c1)CC(=O)N3CCC2` returned a melting point of 86 to 87 °C.
As for `COC(=O)Cn1c(=O)[nH][nH]c1=O`, the figure is 215 to 218 °C; as for `OCc1cc(C(F)(F)F)ccc1I`, 81 to 82 °C; as for `C=CC(C)(C)C(=O)COc1ccc(-c2ccccc2)cc1`, 42 to 44 °C.
Under `CCNC(=O)c1ccc(N2CCN(Cc3cc4c(c(OC(F)F)c3)OC(C)C(=O)N4)CC2)cc1` (configuration not stated) stands 219 to 224 °C.

What is called melting point is the temperature of the solid-liquid transition.
